Target: Dipeptidyl peptidase 2 (Homo sapiens, UniProt Q9UHL4)
Test: Dipeptidyl Peptidase Inhibition Assay

Row | Structure (SMILES) | IC50 [µM]
1 | C[C@@H]1C(=O)N[C@@H](C(F)(F)F)CCN1C(=O)C[C@H](N)Cc1cc(F)c(F)cc1F [(3R,7R)-4-[(3R)-3-amino-4-(2,4,5-trifluorophenyl)butanoyl]-3-methyl-7-(trifluoromethyl)-1,4-diazepan-2-one] | > 100
2 | C[C@@H]1C(=O)NCCCN1C(=O)C[C@H](N)Cc1cc(F)ccc1F [(3R)-4-[(3R)-3-amino-4-(2,5-difluorophenyl)butanoyl]-3-methyl-1,4-diazepan-2-one] | > 100
